From ChEMBL document CHEMBL1201862, “PubChem BioAssay data set” (2004)
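Where inhibition never reached the appropriate level, the endpoint shown equals the highest concentration tested. Otherwise, values were interpolated linearly from a five-concentration, 48-hour dose response in 96-well plates. The concentration for 50% growth inhibition is given as GI50.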 Activity calls are given as the source filed them. Rule as the data show it: active = GI50 up to about 1.1 µM and inactive = higher.

How the values were obtained:
Experiment in all cases: growth of human tumour cells (NCI), 48 h
ACHN = tested on: ACHN
COLO 205 = tested on: COLO 205
DU-145 = tested on: DU-145
HCT-116 = tested on: HCT-116
HL-60 = tested on: HL-60
HOP-92 = tested on: HOP-92
K562 = tested on: K562
LOX IMVI = tested on: LOX IMVI
MDA-MB-231 = tested on: MDA-MB-231
MOLT-4 = tested on: MOLT-4
NCI-H226 = tested on: NCI-H226
NCI-H23 = tested on: NCI-H23
OVCAR-4 = tested on: OVCAR-4
PC-3 = tested on: PC-3
SF-268 = tested on: SF-268
SN12C = tested on: SN12C
SW-620 = tested on: SW-620
U-251 = tested on: U-251
RXF 393 = tested on: RXF 393

Measured: GI50

c1ccc(-c2nnc(CCCCCCCCc3nnc(-c4ccccc4)o3)o2)cc1
inactive: ACHN > 100 µM | COLO 205 > 100 µM | DU-145 > 100 µM | HCT-116 55.6 µM | HL-60 30.6 µM | HOP-92 50.9 µM | K562 34.7 µM | LOX IMVI 48.9 µM | MDA-MB-231 12.2 µM | MOLT-4 51.4 µM | NCI-H226 > 100 µM | NCI-H23 > 100 µM | OVCAR-4 > 100 µM | PC-3 > 100 µM | SF-268 > 100 µM | SN12C > 100 µM | SW-620 > 100 µM | U-251 53 µM

CC(C)CCn1c(=O)c2c(=O)[nH][nH]c2c2ccccc21
inactive: ACHN > 100 µM | COLO 205 > 100 µM | DU-145 > 100 µM | HCT-116 > 100 µM | HL-60 > 100 µM | HOP-92 > 100 µM | K562 > 100 µM | LOX IMVI > 100 µM | MDA-MB-231 > 100 µM | MOLT-4 > 10 µM | NCI-H226 > 100 µM | NCI-H23 > 100 µM | OVCAR-4 > 100 µM | PC-3 > 100 µM | SN12C > 100 µM | SW-620 > 100 µM | U-251 > 100 µM

CCNCCNC(=O)c1ccc(Br)cc1
inactive: ACHN > 100 µM | HL-60 > 100 µM | HOP-92 > 100 µM | K562 > 100 µM | LOX IMVI > 100 µM | MOLT-4 > 100 µM | NCI-H226 > 100 µM | NCI-H23 > 100 µM | OVCAR-4 > 100 µM | PC-3 > 100 µM | RXF 393 > 100 µM | SF-268 > 100 µM | SN12C > 100 µM | SW-620 > 100 µM | U-251 > 100 µM

O=C(NC(CS)C(=O)O)c1cccc2c(=O)c3ccccc3[nH]c12 (stereo not drawn)
inactive: ACHN > 100 µM | COLO 205 > 100 µM | DU-145 > 100 µM | HCT-116 > 100 µM | HL-60 > 100 µM | HOP-92 > 100 µM | K562 > 100 µM | LOX IMVI > 100 µM | MDA-MB-231 > 100 µM | MOLT-4 > 100 µM | NCI-H226 > 100 µM | NCI-H23 > 100 µM | OVCAR-4 > 100 µM | PC-3 > 100 µM | SF-268 > 100 µM | SN12C > 100 µM | SW-620 > 100 µM | U-251 > 100 µM
